Results from PMC7869897, “Structure–functional relationship of cellular retinoic acid-binding proteins I and II interacting with natural and synthetic ligands” (Acta Crystallographica. Section D, Structural Biology, 2021).
Values belong to the compound of their own block, whether it stands above or below them.

Assays:
Format in all cases: binding
CRABPI [1] = target: T1, CRABPI (Homo sapiens, UniProt P29762, L29C); experiment: crystal structure ([…] Å); co-purified fatty acid density modelled as myristic acid
T1 construct: gene CRABP1; His-tagged, tag cleaved with thrombin

CRABPI [2] = target: T1, CRABPI; experiment: fluorescent probe displaced by DC645
CRABPII [3] = target: T2, CRABPII (Homo sapiens, UniProt P29373); experiment: solvatochromic fluorescence probe, with and without CRABPII; displaced by DC645
T2 construct: gene CRABP2; GST-tagged, tag cleaved with thrombin
T2 sequence (P29373 1-138): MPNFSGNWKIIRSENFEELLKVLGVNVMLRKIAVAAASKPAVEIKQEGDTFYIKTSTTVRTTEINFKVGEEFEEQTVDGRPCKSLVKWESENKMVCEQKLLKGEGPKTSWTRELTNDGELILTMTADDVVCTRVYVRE

CRABPI [4] = target: T1, CRABPI; experiment: co-crystal structure ([…] Å) and competitive fluorescence displacement of DC271
CRABPII [5] = target: T2, CRABPII; experiment: as above
CRABPII [6] = target: T2, CRABPII; experiment: co-crystal structure ([…] Å)

T1 sequence (P29762 whole entry L29C): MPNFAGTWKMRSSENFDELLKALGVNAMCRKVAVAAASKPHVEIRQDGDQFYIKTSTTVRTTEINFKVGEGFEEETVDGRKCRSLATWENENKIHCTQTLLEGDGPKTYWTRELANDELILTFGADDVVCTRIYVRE

Compound: CCCCCCCCCCCCCC(=O)O [MYR, myristic acid]
- crystal structure (1.64 Å); co-purified fatty acid density modelled as myristic (CRABPI [1]): a conserved water molecule hydrogen-bonded to the associated ligand modelled as the 14-carbon myristic acid

Compound: CC(C)N1CCC(C)(C)c2cc(C#Cc3ccc(C(=O)O)cc3)ccc21 [DC271]
- fluorescent probe displaced by DC645 (CRABPI [2]): Competitive displacement of DC271 from CRABPI-L29C by DC645 was carried out
- solvatochromic fluorescence probe, with and without CRABPII; displaced by DC645 (CRABPII [3]): DC271 presents a stark solvatochromic effect when in the presence of CRABPII owing to inclusion into the binding site

- Kd (CRABPI [4]): 1940 ± 110 nM
- Kd (CRABPII [5]): 250 ± 60 nM
Compound: CC1(C)CCC(C)(C)c2nc(C#Cc3ccc(C(=O)O)cc3)cnc21 [DC645]

Compound: CC(C)N1CCC(C)(C)c2ccc(-c3ccc(/C=C/C(=O)O)cc3)cc21 [DC479]
- co-crystal structure (1.80 Å) (CRABPII [6]): DC479 occupies the binding site fully, with its carboxylic acid head buried adjacent to the canonical binding triad
